We go through 17 compounds from ChEMBL document CHEMBL5370583, “Cytotoxic Ergosteroids from a Strain of the Fungus Talaromyces adpressus” (J Nat Prod, 2023).

Experiment [1] relates to A549. Kind of experiment: Cytotoxicity against human A549 cells assessed as cell growth inhibition by MTT assay. The experiment is classed as functional, cell-based.
For experiment [2], the system named is HL-60. Kind of experiment: Cytotoxicity against human HL-60 cells assessed as cell growth inhibition by MTT assay. The experiment is classed as functional, cell-based.
In experiment [3] the test system is HepG2. As to the kind of experiment: Cytotoxicity against human HepG2 cells assessed as cell growth inhibition by MTT assay. The format is functional, cell-based.
Experiment [4] concerns SU-DHL-2. Kind of experiment: Cytotoxicity against human SUDHL2 cells assessed as cell growth inhibition by MTT assay. The experiment is classed as functional, cell-based.
A short description of experiment [5]: Cytotoxicity against human […] cells assessed as cell growth inhibition by MTT assay. The experiment is classed as functional, cell-based.
The nature of experiment [6]: Immunosuppressive activity in C57BL/6J mouse B-lymphocyte assessed as inhibition of LPS-induced cell proliferation at 0.3125 to 40 uM incubated for 72 hrs by flow cytometry analysis. The experiment is classed as functional, cell-based. The note with it: dose 0.3125-40 µM.
Experiment [7] concerns SU-DHL-2. Kind of experiment: Induction of apoptosis in human SUDHL2 cells assessed as viable cells at 2 uM measured by Annexin V-FITC/PI staining based flow cytometry assay (reference value: 92.2%). The experiment is classed as functional. The note with it: read-out: Activity.
Experiment [8] relates to SU-DHL-2. Kind of experiment: Induction of apoptosis in human SUDHL2 cells assessed as early apoptotic cells at 2 uM measured by Annexin V-FITC/PI staining based flow cytometry assay (reference value: 4.52%). The experiment is classed as functional.
Experiment [9] has as its system SU-DHL-2. As to the kind of experiment: Induction of apoptosis in human SUDHL2 cells assessed as late apoptotic cells at 2 uM measured by Annexin V-FITC/PI staining based flow cytometry assay (reference value: 3.10%). The format is functional.
Experiment [10] deals with SU-DHL-2. As to the kind of experiment: Induction of apoptosis in human SUDHL2 cells assessed as necrotic cells at 2 uM measured by Annexin V-FITC/PI staining based flow cytometry assay (reference value: 0.23%). The experiment is classed as functional.
Experiment [11] deals with SU-DHL-2. As to the kind of experiment: Induction of apoptosis in human SUDHL2 cells assessed as viable cells at 10 uM measured by Annexin V-FITC/PI staining based flow cytometry assay (reference value: 92.2%). The experiment is classed as functional. Conditions: read-out: Activity.
Experiment [12] has as its system SU-DHL-2. As to the kind of experiment: Induction of apoptosis in human SUDHL2 cells assessed as early apoptotic cells at 10 uM measured by Annexin V-FITC/PI staining based flow cytometry assay (reference value: 4.52%). The experiment is classed as functional.
Experiment [13] relates to SU-DHL-2. Kind of experiment: Induction of apoptosis in human SUDHL2 cells assessed as late apoptotic cells at 10 uM measured by Annexin V-FITC/PI staining based flow cytometry assay (reference value: 3.10%). The format is functional.
Experiment [14] deals with SU-DHL-2. As to the kind of experiment: Induction of apoptosis in human SUDHL2 cells assessed as necrotic cells at 10 uM measured by Annexin V-FITC/PI staining based flow cytometry assay (reference value: 0.23%). The experiment is classed as functional.
Experiment [15] deals with B-cell line. As to the kind of experiment: Immunosuppressive activity in C57BL/6J mouse B-lymphocyte assessed as inhibition of LPS-induced cell proliferation incubated for 72 hrs by flow cytometry analysis. The experiment is classed as functional, cell-based.

Activity calls are given as the source filed them. The rule behind the calls is not given here. Where only a bound is given, the exact number is not on record here.

As to `C=C(CC[C@@H](C(=O)O)[C@H]1CC[C@H]2C3=C[C@@H](O)[C@@]45O[C@@H]4C(=O)C=C[C@]5(C)[C@H]3CC[C@]12C)C(C)C`, the IC50 is over 40 µM in experiment [1]; 7.3 µM in experiment [2]; 24 µM in [3]; 6.9 µM in experiment [4]; 13 µM in experiment [5]. Further, the inhibition entry in experiment [6] is “inactive”.
Regarding `COC(=O)[C@@]12CC[C@@]3(C)[C@]1(O)C(=O)C=C1[C@]4(O)CC[C@H]([C@H](C)/C=C/[C@H](C)C(C)C)[C@@]4(C)CC[C@@]13OO2`, the IC50 in [1], in experiment [2], in experiment [3], in [4] and in experiment [5] was over 40 µM throughout. In experiment [6], the inhibition result was “inactive”.
Turning to `CC(C)[C@@H](C)/C=C/[C@@H](C)[C@H]1CC[C@@]2(O)C3=CC(=O)C4=CC(=O)CC[C@]4(C)[C@@]3(O)CC[C@]12C`, in [6], the inhibition result was “inactive”.
Consider `COC(=O)[C@@]12CC[C@@]3(C)[C@]1(O)C(=O)C=C1[C@@]4(O)CC[C@H]([C@H](C)/C=C/[C@H](C)C(C)C)[C@@]4(C)CC[C@@]13OO2`, for which the IC50 in [1] was over 40 µM; in experiment [2], 32 µM; in [3] it was over 40 µM; in experiment [4], over 40 µM; in experiment [5], over 40 µM. In addition, the inhibition result in [6] is “inactive”.
On to `COC1(OC)CC[C@@]2(C)[C@H](C1)C(=O)C=C1[C@@H]2[C@H](OC(C)=O)C[C@]2(C)[C@@H]([C@H](C)/C=C/C(C)C(C)(C)O)CC[C@@H]12` (single isomer, unassigned), for which the IC50 is 13 µM in experiment [1]; 8.3 µM in experiment [2]; 29 µM in [3]; 25 µM in experiment [4]; 11 µM in experiment [5]. For the same compound, the inhibition result in [6] was “inactive”.
Consider `CC(C)[C@@H](C)/C=C/[C@@H](C)[C@H]1CC[C@]2(O)C3=CC(=O)[C@@H]4[C@@]5(O)CC[C@]4(C)[C@]3(CC[C@]12C)OC5=O`, for which the inhibition result in experiment [6] is “inactive”.
As to `COc1cc([C@@H]2c3cc4c(cc3[C@@H](O[C@@H]3O[C@@H]5CO[C@@H](C)O[C@H]5[C@H](O)[C@H]3O)[C@H]3COC(=O)[C@H]23)OCO4)cc(OC)c1O` [ETOPOSIDE], the IC50 in experiment [1] turned out to be 10 µM; in [2], 2.1 µM; in experiment [3], 21 µM; in experiment [4], 2.1 µM; in experiment [5], 52 µM.
In the case of `CC(C)[C@@H](C)/C=C/[C@@H](C)[C@H]1CC(=O)C2=C3[C@H](O)[C@H]4O[C@]45C[C@@H](O)CC[C@]5(C)[C@@]3(O)CC[C@@]21C`, the inhibition result in experiment [6] was “inactive”.
For `CO[C@@H]1C=C2[C@@H]3CC[C@H]([C@H](C)/C=C/[C@H](C)C(C)C)[C@@]3(C)C[C@H]3O[C@@]23[C@@]2(C)CC[C@H](O)C[C@]12O`, the IC50 in [1] worked out at 18 µM; in experiment [2], 6.1 µM; in [3], 24 µM; in [4], 0.4 µM; in [5] it was 14 µM. Also, the viability at 2 µM in experiment [7] turned out to be 78.2%. Further, the Activity in [8] is reported as 6.67%; in [9] it was 14.3%; in experiment [10] it was 0.87%; in [12] it was 15%; in experiment [13], 54%; in experiment [14], 4.02%. The viability at 10 µM in [11] worked out at 26.9%. Also, the inhibition entry in experiment [6] was “inactive”.
Take `CC(C)[C@@H](C)/C=C/[C@@H](C)[C@H]1CC[C@]2(O)C3=CC(=O)C4=CC(=O)CC[C@]4(C)[C@@]3(O)CC[C@]12C`: the IC50 was 31 µM in experiment [1]; 8.8 µM in experiment [2]; 19 µM in [3]; 7.5 µM in experiment [4]; 30 µM in experiment [5]. For the same compound, in experiment [6], the inhibition entry was “inactive”.
With `C=C(CC[C@@H](C(=O)O)[C@H]1CC[C@H]2C3=C[C@@H](O)[C@@]45O[C@@H]4[C@H](O)[C@@H]4O[C@@H]4[C@]5(C)[C@H]3CC[C@]12C)C(C)C`, the IC50 in experiment [1], in experiment [2], in [3], in experiment [4] and in [5] was over 40 µM each time. Further, in experiment [6], the inhibition entry was “inactive”.
For `CC(C)[C@@H](C)/C=C/[C@@H](C)[C@H]1CC(=O)C2=C3[C@H](O)[C@H]4O[C@]45C[C@@H](O)CC[C@]5(C)[C@H]3CC[C@@]21C`, in [6], the inhibition entry was “inactive”.
Take `CO[C@@H]1C=C2C=CC3=C4C(=O)C[C@H]([C@H](C)/C=C/[C@H](C)C(C)C)[C@@]4(C)CC[C@]3(O)[C@@]2(C)CC1`: the IC50 in experiment [1] is over 40 µM; in experiment [2] it was 25 µM; in experiment [3], over 40 µM; in [4], over 40 µM; in [5], over 40 µM. Besides, in [6], the inhibition entry is “inactive”.
Consider `CC(=O)O[C@@H]1C[C@]2(C)[C@@H]([C@H](C)/C=C/[C@H](C)C(C)(C)O)CC[C@H]2C2=CC(=O)[C@H]3CC(=O)CC[C@]3(C)[C@H]21`, for which the IC50 in [1] turned out to be 22 µM; in experiment [2] it was 11 µM; in [3] it was 25 µM; in experiment [4] it was 19 µM; in experiment [5], 9.2 µM. Further, in [6], the inhibition entry was “inactive”.
Regarding `CC(C)[C@@H](C)/C=C/[C@@H](C)[C@H]1CCC(=O)[C@]23CC(=O)C4=CC(=O)CC[C@]4(C)[C@H]2CC[C@]13C` [DANKASTERONE A], the IC50 in [1] was 25 µM; in experiment [2], 3.8 µM; in experiment [3], 12 µM; in experiment [4], 6.6 µM; in experiment [5], over 40 µM. For the same compound, in experiment [6], the inhibition result was “inactive”.
For the compound `CC(C)[C@@H](C)/C=C/[C@@H](C)[C@H]1CCC(=O)[C@]23CC(=O)[C@@H]4CC(=O)CC[C@]4(C)[C@H]2CC[C@]13C`, the inhibition result in experiment [6] is “inactive”.
As for `CC(C)[C@@H](C)/C=C/[C@@H](C)[C@H]1C[C@@H](O)C2=C3C=CC4=CC(=O)CC[C@]4(C)[C@@]3(O)CC[C@@]21C`, the IC50 in [1] is over 40 µM; in [2] it was over 40 µM; in experiment [3], over 40 µM; in [4], over 40 µM; in experiment [5], over 40 µM; in experiment [15] it was 8.6 µM.
